Source: the SangsterLogP compilation

| logP | Compound |
| --- | --- |
| 2.32 | CC(C)CC(NC(=O)C(CCCCNC(=O)OCc1ccccc1)NC(=O)C(Cc1ccccc1)NS(=O)(=O)N1CCOCC1)C(=O)C(F)(F)C(=O)NCCN1CCOCC1 (stereo unspecified) |
| 5.64 | CCC(C)CNC(=O)CC(O)C(CC(C)C)NC(=O)C(CCCCCCNC(=S)NC)NC(=O)C(Cc1ccc2ccccc2c1)Cc1cccc2ccccc12 (stereo unspecified) |
| 2.12 | CC(=O)NCC#CCC(NC(=O)C(Cc1ccccc1)NS(=O)(=O)N1CCOCC1)C(=O)NC(CC1CCCCC1)C(O)CC(=O)NCCN1CCOCC1 (stereo unspecified) |
| 5.71 | CCC(C)CNC(=O)CC(O)C(CC(C)C)NC(=O)C(CCCCNC(=S)NC)NC(=O)C(Cc1ccc2ccccc2c1)Cc1cccc2ccccc12 (stereo unspecified) |
| 6.7 | CCC(C)CNC(=O)CC(O)C(CC(C)C)NC(=O)C(CCCCNS(=O)(=O)c1ccc(C)cc1)NC(=O)C(Cc1ccc2ccccc2c1)Cc1cccc2ccccc12 (stereo unspecified) |
| 6.7 | CNC(=S)NCCCCC(NC(=O)C(Cc1ccc2ccccc2c1)Cc1cccc2ccccc12)C(=O)NC(CC(C)C)C(O)CC(=O)NC(CC(C)C)C(=O)NCc1ccccc1 (stereo unspecified) |
| 5.32 | CCC(C)CNC(=O)CC(O)C(CC(C)C)NC(=O)C(CC#CCNC(C)=O)NC(=O)C(Cc1ccc2ccccc2c1)Cc1cccc2ccccc12 (stereo unspecified) |
| 5.46 | CNC(=S)NCCCCC(NC(=O)C(Cc1ccc2ccccc2c1)Cc1cccc2ccccc12)C(=O)NC(CC1CCCCC1)C(O)CC(=O)NCCN1CCOCC1 (stereo unspecified) |
| 2.93 | CNC(=S)NCCCCC(C(=O)NC(CC1CCCCC1)C(O)C(F)(F)C(=O)NCCN1CCOCC1)C(=O)C(Cc1ccccc1)NS(=O)(=O)N1CCOCC1 (stereo unspecified) |
| 5.44 | O=CNCC#CCC(NC(=O)C(Cc1cccc2ccccc12)Cc1cccc2ccccc12)C(=O)NC(CC1CCCCC1)C(O)CC(=O)NCCN1CCOCC1 (stereo unspecified) |
| 5.23 | CCC(C)CNC(=O)CC(O)C(CC(C)C)NC(=O)C(CC=CCNC(=S)NC)NC(=O)C(Cc1ccc2ccccc2c1)Cc1cccc2ccccc12 (stereo unspecified) |
| 7.09 | CCC(C)CNC(=O)CC(O)C(CC(C)C)NC(=O)C(CCCn1cccc1)NC(=O)C(Cc1ccc2ccccc2c1)Cc1cccc2ccccc12 (stereo unspecified) |
| 5.25 | CCC(C)CNC(=O)CC(O)C(CC(C)C)NC(=O)C(CCCCN)NC(=O)C(Cc1ccc2ccccc2c1)Cc1cccc2ccccc12 (stereo unspecified) |
| 5.56 | CCC(C)CNC(=O)CC(O)C(CC(C)C)NC(=O)C(CC=CCNC(C)=O)NC(=O)C(Cc1ccc2ccccc2c1)Cc1cccc2ccccc12 (stereo unspecified) |
| 5.5 | CNC(=S)NCCCCC(NC(=O)C(Cc1ccc2ccccc2c1)Cc1cccc2ccccc12)C(=O)NC(CC(C)C)C(O)C(F)(F)C(=O)NCCN1CCOCC1 (stereo unspecified) |
| 2.41 | CNC(=S)NCCCCC(NC(=O)C(Cc1ccccc1)NS(=O)(=O)N(C)C)C(=O)NC(CC1CCCCC1)C(O)CC(=O)NCCN1CCOCC1 (stereo unspecified) |
| 5.63 | CCC(C)CNC(=O)CC(O)C(CC(C)C)NC(=O)C(CCCCNC(=O)NC)NC(=O)C(Cc1ccc2ccccc2c1)Cc1cccc2ccccc12 (stereo unspecified) |
| 2.26 | CNC(=S)NCCCCC(NC(=O)C(Cc1ccccc1)NS(=O)(=O)N1CCOCC1)C(=O)NC(CC1CCCCC1)C(O)CC(=O)NCCN1CCOCC1 (stereo unspecified) |
| 2.25 | O=C(CC(O)C(CC1CCCCC1)NC(=O)C(NC(=O)C(Cc1ccccc1)NS(=O)(=O)N1CCOCC1)C1=CN=N1)NCCN1CCOCC1 (stereo unspecified) |
| 3.91 | CNC(=S)NCCCCC(NC(=O)C(Cc1ccc2ccccc2c1)Cc1cccc2ccccc12)C(=O)NC(CC(C)C)C(O)CC(=O)NCCN1CCOCC1 (stereo unspecified) |
| 5.44 | CNC(=S)NCC#CCC(NC(=O)C(Cc1ccc2ccccc2c1)Cc1cccc2ccccc12)C(=O)NC(CC1CCCCC1)C(O)CC(=O)NCCN1CCOCC1 (stereo unspecified) |

Further lines, the molecule ahead of its results:

| Compound | logP |
| --- | --- |
| CNC(=S)NCC#CCC(NC(=O)C(Cc1ccccc1)NS(=O)(=O)N1CCOCC1)C(=O)NC(CC1CCCCC1)C(O)CC(=O)NCCN1CCOCC1 (stereo unspecified) | 2.9 |
| CNC(=S)NCCCCC(NC(=O)C(CC(=O)N1CCOCC1)Cc1cccc2ccccc12)C(=O)NC(CC(C)C)C(O)CC(=O)NCCN1CCOCC1 (stereo unspecified) | 2.43 |
| CC(C)CC(NC(=O)CC(O)C(CC(C)C)NC(CCCCNC(=N)N[N+](=O)[O-])NC(=O)C(Cc1ccc2ccccc2c1)Cc1cccc2ccccc12)C(=O)NCc1ccccc1 (stereo unspecified) | 5.51 |
| CCC(C)CNC(=O)CC(O)C(CC(C)C)NC(=O)C(CCCCn1cccc1)NC(=O)C(CC1=Cc2ccccc2C1)Cc1cccc2ccccc12 (stereo unspecified) | 7.21 |
| CCC(C)CNC(=O)CC(O)C(CC(C)C)NC(=O)C(CCCCNC(=S)Nc1ccccc1)NC(=O)C(Cc1ccc2ccccc2c1)Cc1cccc2ccccc12 (stereo unspecified) | 6.6 |
| CSC(=NC#N)NCCCCC(NC(=O)C(Cc1ccc2ccccc2c1)Cc1cccc2ccccc12)C(=O)NC(CC(C)C)C(O)CC(=O)NCCN1CCOCC1 (stereo unspecified) | 4.67 |
| CCC(C)CNC(=O)CC(O)C(CC1CCCCC1)NC(=O)C(CCCCNC(=S)NC)NC(=O)C(Cc1ccc2ccccc2c1)Cc1cccc2ccccc12 (stereo unspecified) | 6.63 |
| N=C(NCC#CCC(NC(=O)C(Cc1cccc2ccccc12)Cc1cccc2ccccc12)C(=O)NC(CC1CCCCC1)C(O)CC(=O)NCCN1CCOCC1)N[N+](=O)[O-] (stereo unspecified) | 4.73 |
| CNC(=S)NCCCCC(NC(=O)C(Cc1ccccc1)CS(=O)(=O)C(C)(C)C)C(=O)NC(CC1CCCCC1)C(O)CC(=O)NCCN1CCOCC1 (stereo unspecified) | 2.64 |
| CCC(C)CNC(=O)CC(O)C(CC(C)C)NC(=O)C(CCCCNP(=O)(Oc1ccccc1)Oc1ccccc1)NC(=O)C(Cc1ccc2ccccc2c1)Cc1cccc2ccccc12 (stereo unspecified) | 7.88 |
| CC(C)CC(NC(=O)C(CCCCNC(=N)N[N+](=O)[O-])NC(=O)C(Cc1cccc2ccccc12)Cc1cccc2ccccc12)C(O)CC(=O)NCCN1CCOCC1 (stereo unspecified) | 4.09 |
| CCC(C)CNC(=O)CC(O)C(CC(C)C)NC(=O)C(CCCCCNC(=S)NC)NC(=O)C(Cc1ccc2ccccc2c1)Cc1cccc2ccccc12 (stereo unspecified) | 5.41 |
| CCC(C)CC(=O)CC(O)C(CC(C)C)NC(=O)C(CCCCNC(N)=O)NC(=O)C(Cc1ccc2ccccc2c1)Cc1cccc2ccccc12 (stereo unspecified) | 5.31 |
| CCC(C)CNC(=O)CC(O)C(CC(C)C)NC(=O)C(CCCCCNC(=N)N[N+](=O)[O-])NC(=O)C(Cc1ccc2ccccc2c1)Cc1cccc2ccccc12 (stereo unspecified) | 5.1 |
| CC(C)CC(NC(=O)C(CCCCNC(=N)N[N+](=O)[O-])NC(=O)C(CC(=O)N1CCOCC1)Cc1cccc2ccccc12)C(O)CC(=O)NCCN1CCOCC1 (stereo unspecified) | 1.95 |
| CCC(C)CNC(=O)C(F)(F)C(O)C(CC(C)C)NC(=O)C(CCCCNC(=NC#N)SC)NC(=O)C(Cc1ccc2ccccc2c1)Cc1cccc2ccccc12 (stereo unspecified) | 5.51 |
| CC(C)(C)OC(=O)NCC#CCC(NC(=O)C(Cc1ccc2ccccc2c1)Cc1cccc2ccccc12)C(=O)NC(CC1CCCCC1)C(O)CC(=O)NCCN1CCOCC1 (stereo unspecified) | 6 |
| CC(C)CC(NC(=O)CC(O)C(CC(C)C)NC(=O)C(CCCCNC(=O)OCc1ccccc1)NC(=O)C(Cc1ccc2ccccc2c1)Cc1cccc2ccccc12)C(=O)NCc1ccccc1 (stereo unspecified) | 7.69 |
| CNC(=S)NCCCCC(NC(=O)C(CC(=O)N1CCOCC1)Cc1cccc2ccccc12)C(=O)NC(CC1CCCCC1)C(O)CC(=O)NCCN1CCOCC1 (stereo unspecified) | 1.68 |
| CCC(C)CNC(=O)CC(O)C(CC(C)C)NC(=O)C(CCCCNC(C)=O)NC(=O)C(Cc1ccc2ccccc2c1)Cc1cccc2ccccc12 (stereo unspecified) | 4.38 |
